Data as given in publication PMC8187479, “Sugar phosphate activation of the stress sensor eIF2B” (Nature Communications, 2021).

The compounds below were run against T1, eIF2Bα (Homo sapiens, UniProt Q14232) (assay: MIDAS (mass spectrometry integrated with equilibrium dialysis) metabolite binding screen). Conditions: MIDAS metabolite binding screen with eIF2Bα; sheet "eIF2Ba".
T1 construct: made in house; host or cells: E. coli BL21(DE3)
T1 sequence (Q14232 1-305): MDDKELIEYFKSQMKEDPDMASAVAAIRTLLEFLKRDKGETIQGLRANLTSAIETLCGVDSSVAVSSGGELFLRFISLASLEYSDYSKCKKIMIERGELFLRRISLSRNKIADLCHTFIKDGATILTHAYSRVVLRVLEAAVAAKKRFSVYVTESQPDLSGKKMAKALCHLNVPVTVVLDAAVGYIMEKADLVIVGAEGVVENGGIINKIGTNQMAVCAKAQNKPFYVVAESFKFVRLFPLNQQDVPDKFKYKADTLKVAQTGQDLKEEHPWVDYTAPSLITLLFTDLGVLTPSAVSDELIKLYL
Experimental: Metabolites were combined into four defined screening pools. […] To the reverse side, 300 μL of 50 μM per metabolite pool was aliquoted and sealed (metabolite chamber). Loaded dialysis plates were placed in the dark at 4 °C on a rotating shaker (120 rpm) and incubated for 40 h. Post-dialysis, metabolites were isolated from each chamber by cold methanol extraction. Each sample was analyzed in technical triplicate by FIA-MS on a SCIEX X500R QTOF MS with interspersed blanks injections. The input metabolite pools were assayed at the beginning, middle, and end of each MS method batch for QC and normalization.
MIDAS FIA-MS spectra were processed in SCIEX OS 1.6 software to determine metabolite abundances by integrating the mean area under the curve for each extracted ion chromatogram. For each dialysis replicate, log2(fold change) for each metabolite was calculated as the difference between the log2 abundance in the protein chamber and metabolite chamber. For each technical triplicate, up to one outlier was removed using a z-score cutoff of five (<0.1% of observations). The corrected technical replicates were collapsed to one mean fold-change summary per protein-metabolite pair. To remove fold-change variation that was not specific to a given metabolite-protein pair, the first three principal components of the total screening dataset were removed on a per metabolite pool basis by subtracting the projection of the first 3 principal components, creating log2(corrected fold change). Protein-metabolite z-scores were determined by comparing the target protein-metabolite log2(corrected fold change) to a no-signal model for that metabolite using measures of the central tendency (median) and standard deviation (extrapolated from the 25–75% quantiles), which are robust to the signals in the tails of a metabolite’s fold-change distribution. Z-scores were false-discovery rate controlled using Storey’s q-value (qvalue, R) and protein-metabolite interactions with q-values < 0.1 were considered significant.

`O=C(O)[C@H]1C[C@@H](O)CN1` [Cis-4-Hydroxy-D-proline] and `N[C@H](CO)C(=O)O` [D-Serine] are within 0.2 log units of each other in “log2(corrected fold change)” value: 0.008003 for the first, -0.04824 for the second.

`CC(O)(CC(=O)O)C(=O)O` (stereo not shown) [Citramalate] and `O=C(O)CC(O)(CC(=O)O)C(=O)O` [Citric acid] are within 0.2 log units of each other in “log2(corrected fold change)” value: -0.0058 for the first, -0.01609 for the second.

`CC(C)(COP(=O)(O)OP(=O)(O)OC[C@H]1O[C@@H](n2cnc3c(N)ncnc32)[C@H](O)[C@@H]1OP(=O)(O)O)[C@@H](O)C(=O)NCCC(=O)NCCS` [Coenzyme A] and `Nc1ccn([C@@H]2O[C@H](COP(=O)(O)OP(=O)(O)OP(=O)(O)O)[C@@H](O)[C@H]2O)c(=O)n1` [Cytidine 5-triphosphate] are within 0.2 log units of each other in “log2(corrected fold change)” value: 0.05668 for the first, 0.04784 for the second.

`Nc1nc2c(ncn2[C@@H]2O[C@@H]3COP(=O)(O)O[C@H]3[C@H]2O)c(=O)[nH]1` [Cyclic GMP] and `Nc1ccn([C@@H]2O[C@H](COP(=O)(O)OP(=O)(O)O)[C@@H](O)[C@H]2O)c(=O)n1` [Cytidine 5-diphosphate] are within 0.2 log units of each other in “log2(corrected fold change)” value: 0.01224 for the first, 0.02612 for the second.

`NCCS` [Cysteamine] and `N[C@H](CCC(=O)O)C(=O)O` [D-Glutamic acid] are within 0.2 log units of each other in “log2(corrected fold change)” value: 0.01963 for the first, -0.01634 for the second.

`C[N+](C)(C)CCOP(=O)(O)OP(=O)([O-])OC[C@H]1O[C@@H](n2ccc(N)nc2=O)[C@H](O)[C@@H]1O` [Cytidine 5-diphosphocholine] and `N[C@H]1C(O)O[C@H](COP(=O)(O)O)[C@@H](O)[C@@H]1O` (stereo partly drawn) [D-Glucosamine 6-phosphate] are within 0.2 log units of each other in “log2(corrected fold change)” value: -0.000615 for the first, -0.005422 for the second.

`O=C(O)[C@@H](O)[C@H](O)[C@H](O)CO` [D-Arabinonic acid] and `O=C(O)[C@H](O)[C@@H](O)[C@H](O)[C@H](O)CO` [D-Gluconic acid] are within 0.2 log units of each other in “log2(corrected fold change)” value: -0.01209 for the first, -0.01138 for the second.

`OC[C@@H](O)C(O)[C@H](O)CO` [D-Arabitol] and `O=C[C@H](O)[C@H](O)[C@H](O)CO` [D-Ribose] are within 0.2 log units of each other in “log2(corrected fold change)” value: 0.006339 for the first, -0.0769 for the second.

`OC[C@H]1O[C@@H](O[C@H]2[C@H](O)[C@@H](O)[C@H](O)O[C@@H]2CO)[C@H](O)[C@@H](O)[C@@H]1O` [D-Cellobiose] and `OC[C@H]1O[C@@H](O[C@H]2[C@H](O)[C@@H](O)[C@H](O)O[C@@H]2CO)[C@H](O)[C@@H](O)[C@H]1O` [D-Lactose] are within 0.2 log units of each other in “log2(corrected fold change)” value: -0.03103 for the first, -0.002139 for the second.

`OC[C@H]1OC(O)[C@H](O)[C@@H](O)[C@@H]1O` (stereo partly drawn) [D-Glucose] and `OC[C@H]1OC(O)[C@@H](O)[C@@H](O)[C@@H]1O` (stereo partly drawn) [D-Mannose] are the same in “log2(corrected fold change)” value: -0.01874 for the first, -0.01874 for the second.

`O=C[C@H](O)[C@@H](O)[C@H](O)[C@H](O)C(=O)O` [D-Glucuronic acid] and `O=C(O)[C@@H](O)[C@@H](O)[C@H](O)[C@@H](O)C(=O)O` [D-Saccharic acid] are within 0.2 log units of each other in “log2(corrected fold change)” value: -0.01884 for the first, -0.01904 for the second.

`O=C1O[C@H]2[C@H](OC(O)[C@@H]2O)[C@@H]1O` (stereo partly drawn) [D-Glucurono-6,3-lactone] and `OC[C@H]1O[C@H](O[C@H]2[C@H](O)[C@@H](O)[C@H](O)O[C@@H]2CO)[C@H](O)[C@@H](O)[C@@H]1O` [D-Maltose] are within 0.2 log units of each other in “log2(corrected fold change)” value: 0.01187 for the first, -0.003614 for the second.

`O=C[C@H](O)CO` [D-Glyceraldehyde] and `C[C@@H](O)C=O` [D-Lactaldehyde] are within 0.2 log units of each other in “log2(corrected fold change)” value: -0.02892 for the first, -0.01671 for the second.

`O=C(O)CC[C@@H](O)C(=O)O` [D-Hydroxyglutaric acid] and `CC(C)C[C@@H](O)C(=O)O` [D-Leucic acid] are within 0.2 log units of each other in “log2(corrected fold change)” value: -0.0058 for the first, -0.0302 for the second.

`OC[C@H]1O[C@H](OC[C@H]2O[C@H](O[C@]3(CO)O[C@H](CO)[C@@H](O)[C@@H]3O)[C@H](O)[C@@H](O)[C@@H]2O)[C@H](O)[C@@H](O)[C@H]1O` [D-Raffinose] and `OC[C@H]1O[C@H](O[C@H]2O[C@H](CO)[C@@H](O)[C@H](O)[C@H]2O)[C@H](O)[C@@H](O)[C@@H]1O` [D-Trehalose] are within 0.2 log units of each other in “log2(corrected fold change)” value: -0.02977 for the first, -0.02052 for the second.

`O=C(CO)[C@@H](O)[C@H](O)[C@H](O)[C@H](O)COP(=O)(O)O` [D-Sedoheptulose 7-phosphate] and `O=C(O)[C@@H](O)[C@H](O)[C@H](O)[C@@H](O)C(=O)O` [D-galactaric acid] are within 0.2 log units of each other in “log2(corrected fold change)” value: -0.01312 for the first, 0.01388 for the second.

`O=C(CO)[C@@H](O)[C@H](O)CO` [D-Xylulose] and `O=C(O)CC[C@@H](O)C(=O)O` [D-alpha-Hydroxyglutaric acid] are within 0.2 log units of each other in “log2(corrected fold change)” value: -0.0769 for the first, -0.0058 for the second.

`CCCCCCCCCC(=O)O` [Decanoic acid] and `O=C1OC(C(O)CO)C(=O)C1=O` (stereo not shown) [Dehydroascorbic acid] are within 0.2 log units of each other in “log2(corrected fold change)” value: 0.004891 for the first, 0.003317 for the second.

Same assay, conditions: MIDAS screen, sheet eIF2Ba; metabolites screened in pools 1-4; p-value and q-value given

Compared with `Nc1c(C(=O)O)c2nc3c(C(=O)O)cccc3oc-2cc1=O` [Cinnabarinic Acid], `Nc1ccn([C@@H]2O[C@H](CO)[C@@H](O)[C@H]2O)c(=O)n1` [Cytidine] is higher in “log2(corrected fold change)” value: -0.1918 for the first, 0.2698 for the second.

`C/C(=C/C(=O)O)C(=O)O` [Citraconic acid] and `N[C@H](CC(=O)O)C(=O)O` [D-Aspartate] are within 0.2 log units of each other in “log2(corrected fold change)” value: 0.0972 for the first, 0.03257 for the second.

`CN(CC(=O)O)C(=N)N` [Creatine] and `O=C(O)C(O)COP(=O)(O)O` [D-3-Phosphoglyceric acid] are within 0.2 log units of each other in “log2(corrected fold change)” value: 0.06671 for the first, 0.07991 for the second.

Going from `C/C=C/C(=O)SCCNC(=O)CCNC(=O)[C@H](O)C(C)(C)COP(=O)(O)OP(=O)(O)OC[C@H]1O[C@@H](n2cnc3c(N)ncnc32)[C@H](O)[C@@H]1OP(=O)(O)O` [Crotonoyl coenzyme A] to `O=P(O)(O)OC[C@H]1O[C@H](OP(=O)(O)O)[C@H](O)[C@@H](O)[C@@H]1O` [D-Glucose 1,6-bisphosphate], the “log2(corrected fold change)” value rises from -2.153 to -0.7792.

`O=C1OC[C@@H](O)[C@H]1O` [D-Erythrono-1,4-lactone] and `O=C1CC[C@H](C(=O)O)N1` [D-Pyroglutamic Acid] are within 0.2 log units of each other in “log2(corrected fold change)” value: -0.2396 for the first, -0.09309 for the second.

First: O=C(COP(=O)(O)O)[C@@H](O)[C@H](O)[C@H](O)COP(=O)(O)O [D-Fructose 1,6-bisphosphate]
Second: O=C(CO)[C@@H](O)[C@@H](O)[C@H](O)COP(=O)(O)O [D-Tagatose 6-phosphate]
The “log2(corrected fold change)” value of the first is lower: -0.7792 for the first, -0.01162 for the second.

`O=P(O)(O)OC[C@H]1OC(O)(CO)[C@@H](O)[C@@H]1O` (stereo partly drawn) [D-Fructose 6-phosphate] and `O=P(O)(O)OC[C@H]1OC(O)[C@@H](O)[C@@H](O)[C@@H]1O` (stereo partly drawn) [D-Mannose 6-phosphate] are the same in “log2(corrected fold change)” value: -0.1344 for the first, -0.1344 for the second.

`O=C(CO)[C@@H](O)[C@H](O)[C@H](O)CO` [D-Fructose] and `OC[C@@H](O)[C@@H](O)[C@H](O)[C@@H](O)CO` [D-Sorbitol] are within 0.2 log units of each other in “log2(corrected fold change)” value: -0.09045 for the first, 0.05676 for the second.

`O=P(O)(O)O[C@H]1O[C@H](CO)[C@H](O)[C@H](O)[C@H]1O` [D-Galactose 1-phosphate] and `O=P(O)(O)O[C@H]1O[C@H](CO)[C@@H](O)[C@H](O)[C@H]1O` [D-Glucose 1-phosphate] are the same in “log2(corrected fold change)” value: -0.1344 for the first, -0.1344 for the second.

`O=C[C@H](O)[C@@H](O)[C@@H](O)[C@H](O)CO` [D-Galactose] and `O=C[C@H](O)[C@@H](O)[C@H](O)CO` [D-Xylose] are within 0.2 log units of each other in “log2(corrected fold change)” value: -0.09045 for the first, -0.1354 for the second.

`N[C@H]1C(O)O[C@H](CO)[C@@H](O)[C@@H]1O` (stereo partly drawn) [D-Glucosamine] and `O=P(O)(O)O[C@H]1O[C@H](CO)[C@@H](O)[C@H]1O` [D-Ribose 1-phosphate] are within 0.2 log units of each other in “log2(corrected fold change)” value: 0.1378 for the first, 0.3189 for the second.

Compared with `O=C[C@H](O)COP(=O)(O)O` [D-Glyceraldehyde 3-phosphate], `O=C[C@H](O)[C@H](O)[C@H](O)COP(=O)(O)O` [D-Ribose 5-phosphate] is higher in “log2(corrected fold change)” value: 0.09175 for the first, 0.3189 for the second.

Going from `O=P(O)(O)OC[C@H](O)CO` [D-Glycerol 1-phosphate] to `O=C(CO)[C@@H](O)[C@H](O)COP(=O)(O)O` [D-Xylulose 5-phosphate], the “log2(corrected fold change)” value rises from 0.1183 to 0.3189.

First: O=C(O)[C@H]1CCCN1 [D-Proline]
Second: O=P(O)(O)O[C@@H]1[C@H](O)[C@H](O)[C@@H](OP(=O)(O)O)[C@H](OP(=O)(O)O)[C@H]1O [D-myo-Inositol-1,4,5-triphosphate]
The “log2(corrected fold change)” value of the first is lower: -0.05584 for the first, 0.2026 for the second.
